Calls of active or inactive are those of the source. No rule for the calls is given here.
Test system: CCRIS mutagenicity, Ames/micronucleus/aberration tests
Test: CCRIS mutagenicity studies
[1] = Test System: AMES SALMONELLA TYPHIMURIUM, Strain/Indicator: TA98, Metabolic Activation: NONE, Method: STANDARD PLATE
[2] = Test System: AMES SALMONELLA TYPHIMURIUM, Strain/Indicator: TA98, Metabolic Activation: RAT, LIVER, S-9, AROCLOR 1254, Method: STANDARD PLATE
[3] = Test System: AMES SALMONELLA TYPHIMURIUM, Strain/Indicator: TA100, Metabolic Activation: NONE, Method: STANDARD PLATE
[4] = Test System: AMES SALMONELLA TYPHIMURIUM, Strain/Indicator: TA100, Metabolic Activation: RAT, LIVER, S-9, AROCLOR 1254, Method: STANDARD PLATE
[5] = Test System: AMES SALMONELLA TYPHIMURIUM, Strain/Indicator: TA102, Metabolic Activation: NONE, Method: STANDARD PLATE

Cc1cc(C)c(S(=O)(=O)O)cc1N=Nc1cc(S(=O)(=O)O)c2ccccc2c1O
mutagenic call (Test System: AMES SALMONELLA TYPHIMURIUM, Strain/Indicator: TA98, Metabolic Activation: HAMSTER, LIVER, S-9, AROCLOR 1254, Method: STANDARD PLATE): inactive; negative
mutagenic call [1]: inactive; negative
mutagenic call (Test System: AMES SALMONELLA TYPHIMURIUM, Strain/Indicator: TA98, Metabolic Activation: RAT LIVER S-9, AROCLOR 1254, Method: STANDARD PLATE): inactive; negative
mutagenic call [2]: inactive; negative
mutagenic call (Test System: AMES SALMONELLA TYPHIMURIUM, Strain/Indicator: TA100, Metabolic Activation: HAMSTER, LIVER, S-9, AROCLOR 1254, Method: STANDARD PLATE): inactive; negative
mutagenic call [3]: inactive; negative
mutagenic call (Test System: AMES SALMONELLA TYPHIMURIUM, Strain/Indicator: TA100, Metabolic Activation: RAT LIVER S-9, AROCLOR 1254, Method: STANDARD PLATE): inactive; negative
mutagenic call [4]: inactive; negative
mutagenic call (Test System: AMES SALMONELLA TYPHIMURIUM, Strain/Indicator: TA1535, Metabolic Activation: HAMSTER, LIVER, S-9, AROCLOR 1254, Method: STANDARD PLATE): inactive; negative
mutagenic call (Test System: AMES SALMONELLA TYPHIMURIUM, Strain/Indicator: TA1535, Metabolic Activation: NONE, Method: STANDARD PLATE): inactive; negative
mutagenic call (Test System: AMES SALMONELLA TYPHIMURIUM, Strain/Indicator: TA1535, Metabolic Activation: RAT, LIVER, S-9, AROCLOR 1254, Method: STANDARD PLATE): inactive; negative
mutagenic call (Test System: AMES SALMONELLA TYPHIMURIUM, Strain/Indicator: TA1537, Metabolic Activation: HAMSTER, LIVER, S-9, AROCLOR 1254, Method: STANDARD PLATE): inactive; negative
mutagenic call (Test System: AMES SALMONELLA TYPHIMURIUM, Strain/Indicator: TA1537, Metabolic Activation: NONE, Method: STANDARD PLATE): inactive; negative
mutagenic call (Test System: AMES SALMONELLA TYPHIMURIUM, Strain/Indicator: TA1537, Metabolic Activation: RAT, LIVER, S-9, AROCLOR 1254, Method: STANDARD PLATE): inactive; negative
mutagenic call (Test System: AMES SALMONELLA TYPHIMURIUM, Strain/Indicator: TA1538, Metabolic Activation: HAMSTER, LIVER, S-9, AROCLOR 1254 (2.5-20%), Method: PREINCUBATION): inactive; negative
mutagenic call (Test System: AMES SALMONELLA TYPHIMURIUM, Strain/Indicator: TA1538, Metabolic Activation: HAMSTER, LIVER, S-9, AROCLOR 1254, Method: STANDARD PLATE): inactive; negative
mutagenic call (Test System: AMES SALMONELLA TYPHIMURIUM, Strain/Indicator: TA1538, Metabolic Activation: NONE, Method: STANDARD PLATE): inactive; negative
mutagenic call (Test System: AMES SALMONELLA TYPHIMURIUM, Strain/Indicator: TA1538, Metabolic Activation: RAT, LIVER, S-9, AROCLOR 1254, Method: STANDARD PLATE): inactive; negative
mutagenic call (Test System: MOUSE LYMPHOMA, Strain/Indicator: L5178Y (TK+/TK-), Metabolic Activation: NONE, Method: SUSPENSION/PLATE): inactive; negative. reevaluation of results: negative
mutagenic call (Test System: MOUSE LYMPHOMA, Strain/Indicator: L5178Y (TK+/TK-), Metabolic Activation: RAT, LIVER, S-9, AROCLOR 1254, Method: SUSPENSION/PLATE): inactive; negative. reevaluation of results: negative

CC(C)(C)OC(=O)C=Cc1ccc([N+](=O)[O-])o1
mutagenic call (Test System: AMES SALMONELLA TYPHIMURIUM, Strain/Indicator: TA98, Metabolic Activation: NONE, Method: PREINCUBATION): active; positive

CC(C)(c1ccc(OP(O)O)cc1)c1ccc(OP(O)O)cc1
mutagenic call (Test System: AMES SALMONELLA TYPHIMURIUM, Strain/Indicator: TA97, Metabolic Activation: NONE, Method: STANDARD PLATE): inactive; negative
mutagenic call (Test System: AMES SALMONELLA TYPHIMURIUM, Strain/Indicator: TA97, Metabolic Activation: S-9, Method: STANDARD PLATE): inactive; negative
mutagenic call [1]: inactive; negative
mutagenic call (Test System: AMES SALMONELLA TYPHIMURIUM, Strain/Indicator: TA98, Metabolic Activation: S-9, Method: STANDARD PLATE): inactive; negative
mutagenic call [3]: inactive; negative
mutagenic call (Test System: AMES SALMONELLA TYPHIMURIUM, Strain/Indicator: TA100, Metabolic Activation: S-9, Method: STANDARD PLATE): inactive; negative
mutagenic call [5]: inactive; negative
mutagenic call (Test System: AMES SALMONELLA TYPHIMURIUM, Strain/Indicator: TA102, Metabolic Activation: S-9, Method: STANDARD PLATE): inactive; negative
mutagenic call (Test System: E.COLI, Strain/Indicator: WP2 (PKM101), Metabolic Activation: NONE, Method: STANDARD PLATE): inactive; negative
mutagenic call (Test System: E.COLI, Strain/Indicator: WP2 (PKM101), Metabolic Activation: S-9, Method: STANDARD PLATE): inactive; negative

Cc1cc2nc3ccc(=[N+](C)C)cc-3sc2cc1N
mutagenic call (Test System: AMES SALMONELLA TYPHIMURIUM, Strain/Indicator: TA97A, Metabolic Activation: NONE, Method: STANDARD PLATE): active; positive
mutagenic call (Test System: AMES SALMONELLA TYPHIMURIUM, Strain/Indicator: TA97A, Metabolic Activation: RAT, LIVER, S-9, AROCLOR 1254, Method: STANDARD PLATE): active; positive
mutagenic call [1]: inactive; negative
mutagenic call [2]: active; positive
mutagenic call [3]: inactive; negative
mutagenic call [4]: active; positive
mutagenic call [5]: inactive; negative
mutagenic call (Test System: AMES SALMONELLA TYPHIMURIUM, Strain/Indicator: TA102, Metabolic Activation: RAT, LIVER, S-9, AROCLOR 1254, Method: STANDARD PLATE): active; positive
